For orientation: EC50 means the concentration that produces a half-maximal response.

The results in this text go back to US12612416B2, “Modulators of cystic fibrosis transmembrane conductance regulator” (VERTEX PHARMACEUTICALS INCORPORATED, priority 2020, dated 2026).

Read-outs that look alike come from different tables or passages of the source. Bounds are passed on as bounds.

For series [1] the following is noted: 13-membered ring.
Series [2] has as its target CFTR-mediated chloride transport in human intestinal epithelial enteroid cells (Homo sapiens, UniProt P13569). Briefly: Membrane potential dye, Enteroid Assay B. The class given is cell-based. Particulars: for Ent. B Max Activity: % of chloride transport of triple combination control: 1 μM (14S)-8-[3-(2-{Dispiro[2.0.2.1]heptan-7-yl}ethoxy)-1H-pyrazol-1-yl]-12,12-dimethyl-...-2,2,4-trione, 3 μM tezacaftor, 300 nM acute ivacaftor; for EC50: enteroid cells, 18-24 hours incubation, acute 10 μM forskolin and 300 nM ivacaftor, read-out: Ent. B EC50. As for the experimental part:
Base medium (ADF+++) consisted of Advanced DMEM/Ham's F12, 2 mM Glutamax, 10 mM HEPES, […] penicillin/streptomycin.
Intestinal enteroid maintenance medium (IEMM) consisted of ADF+++, 1×B27 supplement, 1×N2 supplement, 1.25 mM N-acetyl cysteine, 10 mM Nicotinamide, 50 ng/mL hEGF, 10 nM Gastrin, 1 μg/mL hR-spondin-1, 100 ng/mL hNoggin, TGF-b type 1 inhibitor A-83-01, 100 μg/mL Primocin, 10 μM P38 MAPK inhibitor SB202190.
Bath 1 Buffer consisted of 1 mM MgCl2, 160 mM NaCl, 4.5 mM KCl, 10 mM HEPES, 10 mM Glucose, 2 mM CaCl2).
Chloride Free Buffer consisted of 1 mM Magnesium Gluconate, 2 mM Calcium Gluconate, 4.5 mM Potassium Gluconate, 160 mM Sodium Gluconate, 10 mM HEPES, 10 mM Glucose.
BathI Dye Solution consisted of Bath 1 Buffer, 0.04% Pluronic F127, 20 μM Methyl Oxonol, 30 μM CaCCinh-A01, 30 μM Chicago Sky Blue.
Chloride Free Dye Solution consisted of Chloride Free Buffer, 0.04% Pluronic F127, 20 μM Methyl Oxonol, 30 μM CaCCinh-A01, 30 μM Chicago Sky Blue.
Chloride Free Dye Stimulation Solution consisted of Chloride Free Dye Solution, 10 μM forskolin, 100 μM IBMX, and 300 nM Compound III.
Human intestinal epithelial enteroid cells were obtained from the Hubrecht Institute for Developmental Biology and Stem Cell Research, Utrecht, The Netherlands and expanded in T-Flasks as previously described (Dekkers J F, Wiegerinck C L, de Jonge H R, Bronsveld I, Janssens H M, de Winter-de Groot K M, Brandsma A M, de Jong N W M, Bijvelds M J C, Scholte B J, Nieuwenhuis E E S, van den Brink S, Clevers H, van der Ent C K, Middendorp S and M Beekman J M. A functional CFTR assay using primary cystic fibrosis intestinal organoids. Nat Med. 2013 July; 19(7):939-45.).
Cells were recovered in cell recovery solution, collected by centrifugation at 650 rpm for 5 minutes at 4° C., resuspended in TrypLE and incubated for 5 minutes at 37° C. Cells were then collected by centrifugation at 650 rpm for 5 minutes at 4° C. and resuspended in IEMM containing 10 μM ROCK inhibitor (RI). The cell suspension was passed through a 40 μm cell strainer and resuspended at 1×10^6 cells/mL in IEMM containing 10 μM RI. Cells were seeded at 5000 cells/well into multi-well plates and incubated for overnight at 37° C., 95% humidity and 5% CO2 prior to assay.
Enteroid cells were incubated with test compound in IEMM for 18-24 hours at 37° C., 95% humidity, and 5% C02. […] Briefly, cells were washed 5 times in Bath 1 Buffer. Bath 1 Dye Solution was added and the cells were incubated for 25 minutes at room temperature. Following dye incubation, cells were washed 3 times in Chloride Free Dye Solution. Chloride transport was initiated by addition of Chloride Free Dye Stimulation Solution and the fluorescence signal was read for 15 minutes. […] Chloride transport was then expressed as a percentage of the chloride transport following treatment with 1 μM (14S)-8-[3-(2-{Dispiro[2.0.2.1]heptan-7-yl}ethoxy)-1H-pyrazol-1-yl]-12,12-dimethyl-2λ^6-thia-3,9,11,18,23-pentaazatetracyclo[17.3.1.111,14.05,10]tetracosa-1(22),5,7,9,19(23),20-hexaene-2,2,4-trione, 3 μM (R)-1-(2,2-difluorobenzo[d][1,3]dioxol-5-yl)-N-(1-(2,3-dihydroxypropyl)-6-fluoro-2-(1-hydroxy-2-methylpropan-2-yl)-1H-indol-5-yl)cyclopropanecarboxamide and 300 nM acute N-[2,4-bis(1,1-dimethylethyl)-5-hydroxyphenyl]-1,4-dihydro-4-oxoquinoline-3-carboxamide triple combination control (% Activity).

Sequence of CFTR-mediated chloride transport in human intestinal epithelial enteroid cells (P13569 with tags, fused parts or gaps DEL508-508): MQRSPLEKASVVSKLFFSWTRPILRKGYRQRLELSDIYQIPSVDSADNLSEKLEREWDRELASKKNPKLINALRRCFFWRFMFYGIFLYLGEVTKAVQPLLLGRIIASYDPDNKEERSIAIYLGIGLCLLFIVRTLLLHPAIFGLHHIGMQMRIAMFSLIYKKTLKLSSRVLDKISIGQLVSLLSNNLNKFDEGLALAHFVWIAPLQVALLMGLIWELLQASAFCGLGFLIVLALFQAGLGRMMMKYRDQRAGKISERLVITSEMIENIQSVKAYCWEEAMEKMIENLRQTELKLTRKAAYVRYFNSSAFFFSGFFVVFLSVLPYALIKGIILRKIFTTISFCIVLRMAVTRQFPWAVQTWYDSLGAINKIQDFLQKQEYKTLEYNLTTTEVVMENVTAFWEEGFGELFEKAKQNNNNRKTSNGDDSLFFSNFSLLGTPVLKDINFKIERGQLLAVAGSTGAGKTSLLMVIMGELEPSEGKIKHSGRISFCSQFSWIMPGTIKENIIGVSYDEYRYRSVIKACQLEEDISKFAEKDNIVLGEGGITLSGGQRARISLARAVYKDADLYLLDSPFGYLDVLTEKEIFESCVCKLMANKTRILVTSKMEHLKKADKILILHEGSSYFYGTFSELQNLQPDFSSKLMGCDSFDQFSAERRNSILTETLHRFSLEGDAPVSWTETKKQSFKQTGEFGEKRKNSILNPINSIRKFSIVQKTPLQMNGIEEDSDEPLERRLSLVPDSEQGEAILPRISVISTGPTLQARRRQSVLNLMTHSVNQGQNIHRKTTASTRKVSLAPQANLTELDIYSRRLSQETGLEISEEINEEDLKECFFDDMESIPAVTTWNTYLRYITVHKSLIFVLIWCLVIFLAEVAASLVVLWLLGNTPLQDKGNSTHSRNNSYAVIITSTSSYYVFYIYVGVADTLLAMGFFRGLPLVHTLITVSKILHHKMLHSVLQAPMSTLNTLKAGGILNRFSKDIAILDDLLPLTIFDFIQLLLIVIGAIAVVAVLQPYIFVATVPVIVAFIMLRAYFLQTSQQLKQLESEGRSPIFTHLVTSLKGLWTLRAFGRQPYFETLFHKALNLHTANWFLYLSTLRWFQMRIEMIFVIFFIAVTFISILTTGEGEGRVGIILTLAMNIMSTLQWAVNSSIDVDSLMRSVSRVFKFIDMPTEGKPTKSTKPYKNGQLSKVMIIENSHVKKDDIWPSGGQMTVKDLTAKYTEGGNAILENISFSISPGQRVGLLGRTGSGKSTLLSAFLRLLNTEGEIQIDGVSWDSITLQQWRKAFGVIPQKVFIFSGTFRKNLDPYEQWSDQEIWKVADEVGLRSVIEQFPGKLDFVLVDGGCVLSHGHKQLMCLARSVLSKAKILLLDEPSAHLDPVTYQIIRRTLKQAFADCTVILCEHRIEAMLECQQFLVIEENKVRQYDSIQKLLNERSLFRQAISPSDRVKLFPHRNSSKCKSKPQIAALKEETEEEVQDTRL

For the compound `COC(=O)C1CC2(C1)CC(N1C(=O)c3cccc(c3)S(=O)(=O)Nc3nc(cc(-c4c(C)cccc4C)n3)CC[C@H]1CC(C)(C)C)C2` (stereo partly shown), the ring closure, yield after HPLC in series [1] (from COC(=O)C1CC2(CC(N[C@@H](CCc3cc(-c4c(C)cccc4C)nc(NS(=O)(=O)c4cccc(C(=O)O)c4)n3)CC(C)(C)C)C2)C1, amide bond, CDMT/NMM, DMF, 48.6 mM, 18.0 h) was 80%.
In the case of `COc1c2nc(nc1-c1c(C)cccc1C)NS(=O)(=O)c1cccc(c1)C(=O)N(Cc1cncc(N(C)C3CCC3)n1)[C@H](CC(C)(C)C)CC2`, the ring closure, yield after HPLC in series [1] (from COc1c(CC[C@@H](CC(C)(C)C)NCc2cncc(N(C)C3CCC3)n2)nc(NS(=O)(=O)c2cccc(C(=O)O)c2)nc1-c1c(C)cccc1C, amide bond, CDMT/NMM, DMF, 13.3 mM, 72.5 h) amounted to 33%.
Turning to `Cc1cccc(C)c1-c1cc2nc(n1)NS(=O)(=O)c1cccc(c1)C(=O)N1Cc3cc(C(C)(C)C)ccc3[C@@H](O2)[C@H]1CC(C)C`, the ring closure, yield after HPLC in series [1] (from Cc1cccc(C)c1-c1cc(O[C@@H]2c3ccc(C(C)(C)C)cc3CN[C@@H]2CC(C)C)nc(NS(=O)(=O)c2cccc(C(=O)O)c2)n1, amide bond, HATU/NaOtBu, THF/DMF, 25.0 °C, 3 steps) worked out at 1%.
Turning to `Cc1cccc(C)c1-c1cc2nc(n1)NS(=O)(=O)c1cccc(c1)C(=O)N1Cc3cc(C(C)(C)C)ccc3[C@H](O2)[C@H]1CC(C)C`, the ring closure, yield after HPLC in series [1] (from Cc1cccc(C)c1-c1cc(O[C@H]2c3ccc(C(C)(C)C)cc3CN[C@@H]2CC(C)C)nc(NS(=O)(=O)c2cccc(C(=O)O)c2)n1, amide bond, HATU/NaOtBu, THF/DMF, 80.1 mM, 25.0 °C, 3 steps) worked out at 27%.
`Cc1cccc(C)c1-c1cc2nc(n1)NS(=O)(=O)c1cccc(c1)C(=O)O[C@H]1c3ccc(C(C)(C)C)cc3CN2[C@@H]1CC(C)C`: the ring closure, yield after HPLC in series [1] (from Cc1cccc(C)c1-c1cc(N2Cc3cc(C(C)(C)C)ccc3[C@H](O)[C@H]2CC(C)C)nc(NS(=O)(=O)c2cccc(C(=O)O)c2)n1, ester bond, HATU/NaOtBu, THF/DMF, 25.0 °C, 3 steps) came to 4%.
Turning to `Cc1cccc(C)c1-c1nc2nc(c1C)OCCNC(=O)c1cccc(c1)S(=O)(=O)N2`, in series [1] (from Cc1cccc(C)c1-c1nc(NS(=O)(=O)c2cccc(C(=O)O)c2)nc(OCCN)c1C, amide bond, HATU/DIEA, DMF, 50.7 mM, 25.0 °C), the ring closure, yield after HPLC amounted to 23%.
As to `Cc1cccc(C)c1-c1cc2cc(n1)NS(=O)(=O)c1cccc(c1)C(=O)N(C1CC3(CC3)C1)[C@H](CC(C)C)CC2` [Compound 3, (11S)-6-(2,6-Dimethylphenyl)-11-isobutyl-2,2-dioxo-12-spiro[2.3]hexan-5-yl-2 λ6-thia-3,5,12-triazatricyclo[12.3.1.14,8]nonadeca-1(18),4(19),5,7,14,16-hexaen-13-one], in series [2], the “Ent. B Max Activity” value is recorded as “+++ (+++ is >60%)” and the EC50 is less than 1 µM. The compound further showed a ring closure, yield after HPLC in series [1] (from Cc1cccc(C)c1-c1cc(CC[C@@H](CC(C)C)NC2CC3(CC3)C2)cc(NS(=O)(=O)c2cccc(C(=O)O)c2)n1, amide bond, HATU/DIEA, DMF, 26.7 mM, 25.0 °C, 0.25 h) of 19%.
On to `COCCN1CCC2(CC1)CC(N1C(=O)c3cccc(c3)S(=O)(=O)Nc3nc(cc(-c4c(C)cccc4C)n3)CC[C@H]1CC(C)C)C2` [Compound 9, (11S)-6-(2,6-Dimethylphenyl)-11-isobutyl-12-[7-(2-methoxyethyl)-7-azaspiro[3.5]nonan-2-yl]-2,2-dioxo-2λ6-thia-3,5,12,19-tetrazatricyclo[12.3.1.14,8]nonadeca-1(18),4(19),5,7,14,16-hexaen-13-one], for which, in series [2], the “Ent. B Max Activity” value is recorded as “+++ (+++ is >60%)” and the EC50 is less than 1 µM.
With `Cc1cccc(C)c1-c1cc2nc(n1)NS(=O)(=O)c1cccc(c1)C(=O)N(CCCC(C)(C)O)CCC2C` (stereo not shown) [Compound 10, 6-(2,6-Dimethylphenyl)-12-(4-hydroxy-4-methyl-pentyl)-9-methyl-2,2-dioxo-2λ6-thia-3,5,12,19-tetrazatricyclo[12.3.1.14,8]nonadeca-1(18),4(19),5,7,14,16-hexaen-13-one], in series [2], the “Ent. B Max Activity” value is “+++ (+++ is >60%)” and the EC50 fell in the range of 1 to 3 µM.
The matching figures for `Cc1cccc(C)c1-c1cc2nc(n1)NS(=O)(=O)c1cccc(c1)C(=O)N[C@H](CC(C)C)CC2` [Compound 14]: “+++ (+++ is >60%)” and less than 1 µM.
The matching figures for `Cc1cccc(C)c1-c1cc2nc(n1)NS(=O)(=O)c1cccc(n1)C(=O)N(C1CC3(CC3)C1)[C@H](CC(C)C)CC2` [Compound 15]: “++ (++ is 30-60%)” and less than 1 µM.
For `Cc1cccc(C)c1-c1cc2nc(n1)NS(=O)(=O)c1cccc(c1)C(=O)N(Cc1ccc(C(C)(C)O)cc1)CCC2C` (stereo not shown) [Compound 16] the same measures were “+++ (+++ is >60%)” and less than 1 µM.
With `Cc1cccc(C)c1-c1cc2nc(n1)NS(=O)(=O)c1cccc(c1)C(=O)N(C)CCC2C` (stereo not shown) [Compound 17], in series [2], the “Ent. B Max Activity” value was “+++ (+++ is >60%)” and the EC50 was 1 to 3 µM.
Regarding `Cc1cccc(C)c1-c1cc2nc(n1)NS(=O)(=O)c1cccc(c1)C(=O)N(Cc1ncccn1)CCC2C` (stereo not shown) [Compound 18], in series [2], the “Ent. B Max Activity” value is given as “+++ (+++ is >60%)” and the EC50 is 1 to 3 µM.
As to `Cc1cccc(C)c1-c1cc2nc(n1)NS(=O)(=O)c1cccc(c1)C(=O)N(C1CC3(CC3)C1)CCC2c1ccc(C(C)(C)C)cc1` (stereo not shown) [Compound 19], in series [2], the “Ent. B Max Activity” value is recorded as “++ (++ is 30-60%)” and the half-maximal effective concentration (EC50) is less than 1 µM.
The matching figures for `Cc1cccc(C)c1-c1cc2nc(n1)NS(=O)(=O)c1cccc(c1)C(=O)N(C1CC3(CC3)C1)CC2Cc1ccc(C(C)(C)C)cc1` (stereo not shown) [Compound 20]: “++ (++ is 30-60%)” and less than 1 µM.
As to `Cc1cccc(C)c1-c1cc2nc(n1)NS(=O)(=O)c1cccc(c1)C(=O)N(C1CC3(CC3)C1)CC[C@H]2c1ccc(C(C)(C)C)cc1` [Compound 22], in series [2], the “Ent. B Max Activity” value is “++ (++ is 30-60%)” and the EC50 is less than 1 µM.
With `Cc1cccc(C)c1-c1cc2nc(n1)NS(=O)(=O)c1cccc(c1)C(=O)N(C1CC3(CC3)C1)CC[C@H]2c1ccc(C(C)(C)C)cc1` [Compound 23], the “Ent. B Max Activity” value in series [2] was “++ (++ is 30-60%)”.
Same read-out and setting: with `Cc1cccc(C)c1-c1cc2nc(n1)NS(=O)(=O)c1cccc(c1)C(=O)OC[C@@H](CC(C)(C)C)N2c1ccnn1C` [Compound 29] the entry was “+ (+ is <30%)”; with `Cc1cccc(C)c1-c1cc2nc(n1)NS(=O)(=O)c1cccc(c1)C(=O)OC[C@@H](CC(C)(C)C)N2Cc1nccc(C(F)(F)F)n1` [Compound 32], “+ (+ is <30%)”.
On to `Cc1cccc(C)c1-c1cc2nc(n1)NS(=O)(=O)c1cccc(c1)C(=O)N(C1CC3(CC3)C1)CCC21CC1` [Compound 41, 6-(2,6-Dimethylphenyl)-2,2-dioxo-12-spiro[2.3]hexan-5-yl-spiro[2λ6-thia-3,5,12,19-tetrazatricyclo[12.3.1.14,8]nonadeca-1(18),4(19),5,7,14,16-hexaene-9,1′-cyclopropane]-13-one], for which, in series [2], the “Ent. B Max Activity” value is listed as “++ (++ is 30-60%)” and the EC50 was less than 1 µM.
